# Reference: ChEMBL document CHEMBL1201862, “PubChem BioAssay data set” (2004)
# Active and inactive are the calls of the source.
# Assays:
# [1] = NIH-3T3 fibroblast cytotoxicity, dose response, cytotoxicity control, cell-based, fluorescence, Alamar Blue, secondary assay (AID 2327); type: functional;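 note: NIH-3T3 mouse fibroblasts cultured with fluconazole at 8 µg/mL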
# [2] = C. albicans growth with fluconazole, confirmation, fluorescence, retest (AID 2467); type: functional, cell-based
# [3] = target: T1, Rac GTPase-activating protein 1 (Homo sapiens, UniProt Q9H0H5); assay: MgcRacGAP GTPase-activating activity inhibitors, confirmation, biochemical, ADP Hunter fluorescence, primary and confirmatory (AID 624330); type: functional
# T1 sequence (Q9H0H5 whole entry): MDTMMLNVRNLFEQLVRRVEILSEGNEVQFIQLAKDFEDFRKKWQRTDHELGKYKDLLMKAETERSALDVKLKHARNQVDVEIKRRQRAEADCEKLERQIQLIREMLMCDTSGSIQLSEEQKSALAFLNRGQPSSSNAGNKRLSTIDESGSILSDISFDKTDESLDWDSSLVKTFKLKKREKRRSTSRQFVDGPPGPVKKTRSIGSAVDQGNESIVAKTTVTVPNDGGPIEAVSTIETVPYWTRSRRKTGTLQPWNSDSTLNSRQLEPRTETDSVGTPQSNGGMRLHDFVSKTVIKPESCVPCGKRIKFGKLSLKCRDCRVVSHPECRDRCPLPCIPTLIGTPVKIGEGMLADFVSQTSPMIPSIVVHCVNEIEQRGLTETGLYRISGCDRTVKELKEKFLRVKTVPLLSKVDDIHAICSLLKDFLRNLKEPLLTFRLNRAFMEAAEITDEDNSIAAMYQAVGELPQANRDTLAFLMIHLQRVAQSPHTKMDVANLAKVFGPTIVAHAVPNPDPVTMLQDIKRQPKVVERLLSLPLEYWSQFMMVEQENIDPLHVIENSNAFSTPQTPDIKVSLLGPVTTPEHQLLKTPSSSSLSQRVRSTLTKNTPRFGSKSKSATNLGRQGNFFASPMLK
# [4] = target: T2, Replicative DNA helicase DnaB (Mycobacterium tuberculosis, UniProt P9WMR3); assay: DnaB intein splicing inhibitors, dose response, biochemical, cell-free fluorescence (AID 449749); type: functional
# T2 sequence (P9WMR3 whole entry): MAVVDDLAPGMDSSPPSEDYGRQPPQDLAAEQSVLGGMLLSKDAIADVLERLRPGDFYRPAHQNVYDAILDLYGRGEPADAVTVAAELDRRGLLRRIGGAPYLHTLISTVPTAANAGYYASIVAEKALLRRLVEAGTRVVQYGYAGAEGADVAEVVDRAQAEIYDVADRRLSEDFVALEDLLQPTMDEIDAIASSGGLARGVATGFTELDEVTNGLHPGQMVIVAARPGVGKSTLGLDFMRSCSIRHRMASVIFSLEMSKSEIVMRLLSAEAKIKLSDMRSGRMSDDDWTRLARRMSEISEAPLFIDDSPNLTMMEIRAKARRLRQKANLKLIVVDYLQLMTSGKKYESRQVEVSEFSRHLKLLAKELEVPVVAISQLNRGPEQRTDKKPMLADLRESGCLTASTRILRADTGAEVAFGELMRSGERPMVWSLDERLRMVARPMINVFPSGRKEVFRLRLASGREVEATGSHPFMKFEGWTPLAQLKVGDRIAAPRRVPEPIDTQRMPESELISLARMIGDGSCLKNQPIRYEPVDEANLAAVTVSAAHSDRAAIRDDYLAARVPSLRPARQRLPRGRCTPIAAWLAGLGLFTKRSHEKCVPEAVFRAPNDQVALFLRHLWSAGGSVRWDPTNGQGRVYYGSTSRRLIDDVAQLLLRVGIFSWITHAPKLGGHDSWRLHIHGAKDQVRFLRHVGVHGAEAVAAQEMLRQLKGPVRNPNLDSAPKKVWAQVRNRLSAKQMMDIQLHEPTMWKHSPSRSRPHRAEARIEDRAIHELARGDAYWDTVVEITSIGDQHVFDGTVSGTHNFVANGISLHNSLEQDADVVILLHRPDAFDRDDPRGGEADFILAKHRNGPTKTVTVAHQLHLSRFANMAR
# Protein RecA = target: T3, Protein RecA (Mycobacterium tuberculosis, UniProt P9WHJ3); assay: Fluorescence Cell-Free Homogeneous Dose Retest to Identify Inhibitors of RecA-Intein Splicing Activity. [Related pubchem assays (depositor defined):AID2097, AID2223, AID489010, AID492950]; type: functional
# T3 sequence (P9WHJ3 whole entry): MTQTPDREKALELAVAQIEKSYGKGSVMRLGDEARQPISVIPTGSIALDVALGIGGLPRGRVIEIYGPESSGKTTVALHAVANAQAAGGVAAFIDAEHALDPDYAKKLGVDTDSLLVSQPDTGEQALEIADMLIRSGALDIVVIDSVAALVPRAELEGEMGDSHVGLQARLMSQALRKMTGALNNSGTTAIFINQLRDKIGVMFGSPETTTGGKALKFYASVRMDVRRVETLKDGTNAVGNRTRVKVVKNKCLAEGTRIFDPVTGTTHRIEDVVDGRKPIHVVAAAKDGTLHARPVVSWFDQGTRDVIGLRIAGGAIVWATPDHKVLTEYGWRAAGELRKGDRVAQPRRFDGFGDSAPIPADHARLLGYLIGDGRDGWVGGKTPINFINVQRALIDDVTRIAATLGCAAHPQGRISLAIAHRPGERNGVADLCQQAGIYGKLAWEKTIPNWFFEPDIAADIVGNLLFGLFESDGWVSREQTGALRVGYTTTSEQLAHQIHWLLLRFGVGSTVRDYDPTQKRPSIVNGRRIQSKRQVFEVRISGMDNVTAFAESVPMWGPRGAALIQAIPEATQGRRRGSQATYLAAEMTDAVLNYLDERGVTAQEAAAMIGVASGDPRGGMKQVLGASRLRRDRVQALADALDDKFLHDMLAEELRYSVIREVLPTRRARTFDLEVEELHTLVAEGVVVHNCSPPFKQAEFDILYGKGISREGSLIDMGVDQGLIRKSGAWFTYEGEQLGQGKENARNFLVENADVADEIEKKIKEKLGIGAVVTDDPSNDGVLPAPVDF
# [5] = Luminescence Cell-Based Dose Confirmation HTS to Identify Activators of 5'UTR Stem-Loop Driven Alpha-Synuclein mRNA Translation in H4 Neuroglioblastoma Cells. [Related pubchem assays: 1829 (Project Summary), 1814 (Primary HTS)]; type: functional
# [6] = Luminescence Cell-Based Dose Response HTS to Identify Activators of Luciferase Translation or Activity in H4 […] Cells. [Related pubchem assays: 1829 (Project Summary), 1814 (Primary HTS)]; type: functional
# H4 = assay: Luminescence Cell-Based Dose Response HTS to Identify Activators of 5'UTR Stem-Loop Driven Prion Protein mRNA Translation in H4 Neuroglioblastoma Cells. [Related pubchem assays: 1829 (Project Summary), 1814 (Primary HTS)]; type: functional; settings: Homo sapiens
# cells = type: functional
# [7] = Luminescence Cell-Based Dose Retest to Confirm Inhibitors of Cancer Stem Cells. [Related pubchem assays (depositor defined):AID2717, AID2721]; type: functional; settings: Homo sapiens
# [8] = ZM109 Env clade C HIV-1 fusion inhibitors, dose response, HeLa effector, CEM target cells, luciferase, cherry-pick (AID 652058); type: functional, cell-based
# [9] = inhibitors of clade B AD8 Env fusion, dose response, cell-based, cherry-pick (AID 652062); type: functional;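 note: luciferase signal from cell-cell fusion driven by HIV-1 clade B AD8 Env; potency is for inhibitors of fusion seen as a drop in luminescence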
smiles,measurement,setting,value
O=C(Cn1c2ccc(F)cc2c2nc3n(c(=O)c21)CCS3)N1CCCC1,EC50,[1],> 160 µM (inactive)
same,EC50,[2],0.66 µM (active)
COC(=O)c1cc(NCc2cccs2)ccc1N1CCOCC1,IC50,[3],135 µM (active)
Cc1ccc(N2C(=O)C(Cl)=C(NCCO)C2=O)c(C)c1,AC50,[4],155 µM (active)
same,EC50,Protein RecA,10.8 µM (active)
Cc1ccc(-c2cc(C(=O)N3CCCc4ccccc43)no2)cc1,EC50,[5],52.4 µM (active)
same,EC50,[6],> 120 µM (not active)
same,EC50,H4,11.8 µM (active)
O=C(Nc1nnc(-c2ccccn2)o1)c1ccc(Br)cc1,EC50,[1],18.3 µM (inconclusive)
same,EC50,[2],> 38 µM (not active)
Cc1ccc(NC(=O)CCNCc2ccco2)cc1S(=O)(=O)N(C)C,IC50,[3],229 µM (active)
O=[N+]([O-])c1ccc(N2CCN(Cc3ccc([N+](=O)[O-])o3)CC2)cc1,EC50,[1],> 150 µM (inactive)
same,EC50,[2],> 38 µM (not active)
same,IC50,cells,< 0.1 µM (active)
N=c1n(CCN2CCOCC2)c2ccccc2n1CC(=O)c1ccc(Cl)c(Cl)c1,EC50,[5],> 120 µM (not active)
same,EC50,[6],> 120 µM (not active)
same,EC50,H4,41.8 µM (inconclusive)
Cc1cc(C)c(C)c(S(=O)(=O)N2CCN(c3ccc(O)cc3)CC2)c1C,AC50,[7],8.83 µM (active)
same,IC50,[3],85.9 µM (active)
Cc1ccc(CNC(=O)CCN2C(=O)[C@@H]3Cc4ccccc4CN3C2=O)cc1,AC50,[4],373 µM (active)
same,EC50,Protein RecA,> 380 µM (inactive)
CC1(S(=O)(=O)O)CC(=O)c2ccccc2C1=O (centres undefined),AC50,[4],5.26 µM (active)
same,EC50,Protein RecA,3.03 µM (active)
CCCCC(=O)NC(c1cccc([N+](=O)[O-])c1)c1c(OC(C)=O)ccc2ccccc12 (centres undefined),AC50,[4],41.6 µM (active)
same,EC50,Protein RecA,25.4 µM (active)
O=[N+]([O-])/C(C(Cl)=C(Cl)Cl)=C(/Sc1ccccc1)N1CCCCC1,AC50,[4],3.88 µM (active)
same,EC50,Protein RecA,7.05 µM (active)
Cc1cccc2cc(C#N)c(SCc3nnc(-c4ccccc4[N+](=O)[O-])o3)nc12,EC50,[5],> 120 µM (not active)
same,EC50,[6],75.4 µM (active)
same,EC50,H4,18.4 µM (active)
O=C(CN1C(=O)S/C(=C\C=C\c2ccccc2)C1=O)Nc1cccc(O)c1,EC50,[5],16.4 µM (active)
same,EC50,[6],40.1 µM (active)
same,EC50,H4,49.2 µM (active)
O=C(Nc1cccc(OC(=O)c2ccc(Br)o2)c1)c1ccccc1,AC50,[4],0.0485 µM (inconclusive)
same,EC50,Protein RecA,9.2 µM (active)
CCCc1n[nH]c2c1C(c1ccc(O)c(OC)c1)C(C#N)=C(N)O2 (centres undefined),AC50,[4],57.1 µM (active)
same,EC50,Protein RecA,8.18 µM (active)
CC1CC(C)CN(C(=O)c2ccc3c(c2)N(Cc2ccccc2)CCS3)C1 (centres undefined),AC50,[4],5.01 µM (active)
same,EC50,Protein RecA,23.6 µM (active)
COC(=O)C1C(=O)C=C(Nc2ccc(F)cc2F)CC1c1ccccc1 (centres undefined),EC50,[5],> 120 µM (not active)
same,EC50,[6],95.6 µM (active)
same,EC50,H4,17.6 µM (active)
O=C(CCl)NCc1c(Cl)cccc1-n1cccc1,AC50,[4],> 380 µM (inactive)
same,EC50,Protein RecA,15.3 µM (active)
O=C(c1cc(-c2cccc(Cl)c2)on1)N1CCOCC1,EC50,[5],4.22 µM (active)
same,EC50,[6],26.4 µM (active)
same,EC50,H4,21.1 µM (active)
O=C(c1ccccc1)N1CCC(c2nc(-c3ccc(S(=O)(=O)NCC4CCCO4)cc3)no2)CC1 (centres undefined),AC50,[8],24.4 µM (active)
same,AC50,[9],11.3 µM (active)
Cc1ccc(C(C)(C)NC(=O)C2CCC(=O)N(C3CCCCCC3)C2)cc1 (centres undefined),EC50,[5],83.3 µM (active)
same,EC50,[6],10.2 µM (active)
same,EC50,H4,> 120 µM (not active)
Oc1ccc(NCc2ccc(OCc3ccccc3)cc2)cc1,IC50,[3],60.5 µM (active)
COc1cc(/C=C/C(=O)OCC(=O)c2ccc(OC(F)F)cc2)ccc1O,IC50,[3],64 µM (active)
Nc1cc(Cc2ccccc2)ccc1O,IC50,[3],18 µM (active)
CN(C)C(=O)C[C@H]1C[C@@H]2c3cc(NS(=O)(=O)c4ccc(F)cc4)ccc3O[C@@H]2[C@@H](CO)O1,AC50,[8],54.1 µM (active)
C/C(=N\N1C(=O)CSC1=S)c1ccc(Br)cc1,EC50,[1],> 160 µM (inactive)
same,EC50,[2],> 38 µM (not active)
Cc1cccc(/C=N/c2ccc3c4c(cccc24)CC3)c1O,IC50,[3],20 µM (active)
COc1cccc(/C=N/NC(=O)CCn2nnc3ccccc32)c1,EC50,[5],> 120 µM (not active)
same,EC50,[6],> 120 µM (not active)
same,EC50,H4,> 120 µM (not active)
COC(=O)/C(=N\Nc1ccc(Cl)cc1)Sc1nnc(-c2ccc(OC)cc2)n1C,EC50,[1],> 160 µM (inactive)
same,EC50,[2],> 38 µM (not active)
